Test results: article PMC10536928, “Discovery of New Pyrrolo[2,3-d]pyrimidine Derivatives as Potential Multi-Targeted Kinase Inhibitors and Apoptosis Inducers” (Pharmaceuticals, 2023)

Legend:
Assay type in all cases: cell-based
[1] = test system: breast cancer (MDA-MB-231); assay: MTT cytotoxicity assay; settings: Homo sapiens, 24 h exposure, mean ± SD of triplicate
Protocol: (§1) The cytotoxic effects of compounds 5a–m were evaluated using a standard MTT method against four different cancer cell lines, namely mammary gland cancer (MCF-7), hepatocellular carcinoma (HepG2), breast cancer (MDA-MB-231), and epithelioid cervix carcinoma (HeLa). […] These findings highlight the potential of these compounds as candidates for further development as cytotoxic agents for cancer treatment.
(§2) The cytotoxicity of compounds 5a–m was assessed against various cancer cell lines and one normal cell line using the described methodology. In brief, the cells were cultured in 96-well plates with a density of 1.0 × 10^4 cells per well, supplemented with 10% fetal bovine serum (FBS), an antibiotic cocktail, and RPMI 11,640 medium. The cells were then incubated for 48 h with 5% CO2 and 100% relative humidity at 37 °C. […] Following treatment, the addition of 20 µL of MTT solution was added to each well and incubation was continued for another 4 h, after which dimethyl sulfoxide (100 µL) was used to dissolve the resulting insoluble formazan. The absorbance was measured at 570 nm using a BioTek EXL 800 plate reader (Agilent Technologies, CA, USA). By comparing the absorbance of treated samples to untreated samples, the relative cell viability percentage was calculated as (A570 of treated samples/A570 of untreated sample) × 100. The IC50 values were determined based on triplicate measurements.

[2] = test system: hepatocellular carcinoma (HepG2); assay: MTT cytotoxicity assay; settings: Homo sapiens, 24 h exposure, mean ± SD of triplicate
Protocol: as §1, §2

[3] = test system: mammary gland cancer (MCF-7); assay: MTT cytotoxicity assay; settings: 24 h exposure, mean ± SD of triplicate
Protocol: as §1, §2

Bax = assay: Apoptotic protein levels assay (ELISA) in HepG2 cells
From the text: (§3) To validate the mechanism of cell death and the induction of apoptosis caused by compound 5k, the expression levels of some apoptotic proteins were investigated. […] Specifically, the levels of caspase-3 (6.9 folds higher than the control) and Bax (2.6 folds higher than the control) were higher in the group treated with 5k compared to the control group. Caspase-3 is a key enzyme involved in the execution of apoptosis, while Bax is a pro-apoptotic protein that promotes cell death. […] Bcl-2 is a protein that inhibits apoptosis, so the lower levels of Bcl-2 in the 5k treated group further support the notion that treatment with 5k may induce apoptosis in HepG2 cells. […] These findings may have implications for the development of novel therapies for diseases involving abnormal cell death, including cancer. Further studies are warranted in order to elucidate the underlying mechanisms of action of compound 5k and to assess its potential therapeutic applications.
(§4) The ELISA technique was employed to assess the impact of compound 5k on the alteration of protein levels associated with caspase-3, BAX, and Bcl-2. Specifically, the following ELISA kits were utilized: KHO1091 (InvitrogenTM, Grand Island, NY, USA) for caspase-3, EIA-4860 and EIA-4487 for BAX, (DRU International INC., Mountainside, NJ, USA), and 99-0042 (InvitrogenTM, Grand Island, NY, USA) for Bcl-2 for the respective measurements. The experimental procedures were conducted according to the instructions provided by the manufacturers and our recently published article. Initially, HepG2 cells were cultured in triplicate in 96-well plates. Following a 24-h incubation period, the cells were subjected to various concentrations of compound 5k, while a control group was treated with 0.1% DMSO (V/V). After an additional 24-h incubation, the absorbance levels were assessed using a BioTek Synergy H1 Multi-mode Reader (Agilent Technologies, Santa Clara, CA, USA) at wavelengths ranging from 450 to 650 nm.

Bcl-2 = assay: as above
From the text: as §3, §4

caspase-3 = assay: as above
From the text: as §3, §4

[4] = test system: epithelioid cervix carcinoma (HeLa); assay: MTT cytotoxicity assay; settings: Homo sapiens, 24 h exposure, mean ± SD of triplicate

O=C(N/N=C/c1ccc(Cl)c(Cl)c1)c1ccc(Nc2ncnc3[nH]ccc23)cc1 [Compound 5k, (E)-4-((7H-Pyrrolo[2,3-d]pyrimidin-4-yl)amino)-N’-(3,4-dichlorobenzylidene)benzohydrazide]
IC50 [1]: 51.4 ± 2.8 µM | IC50 [2]: 41.5 ± 2.6 µM | IC50 [3]: 59.1 ± 3.5 µM | IC50 ([3]; Homo sapiens, MCF7, 24 h): 60 µM | Bax level, folds higher than the control (Bax): 2.6 folds | Protein Expression (Pg/mL) Bax (Bax; 24 h, ELISA, control 67.09 ± 4.94): 173.8 ± 6.61 pg/mL | Bcl-2 level relative to the control (Bcl-2): two-fold lower than the control | Protein Expression (Pg/mL) Bcl-2 (Bcl-2; 24 h, ELISA, control 11.7 ± 0.36): 5.146 ± 0.09 pg/mL | caspase-3 level, folds higher than the control (caspase-3): 6.9 folds | Protein Expression (Pg/mL) Caspase-3 (caspase-3; 24 h, ELISA, control 66.28 ± 4.66): 453.8 ± 17.4 pg/mL | IC50 [4]: 57.8 ± 3.1 µM
